In patent publication US8597904B2, “Pharmaceutical compositions for the treatment of conditions responsive to proteasome inhibition” (priority 2007, dated 2013):

Columns and labels:
[1] = system: poly (ADP-ribose) polymerase (PARP); experiment: Western blot of PARP cleavage in SK-N-SH cells; type: cell-based, human
Experimental: The induction of an apoptotic response in cancer cells by the addition of syringolin A was verified by monitoring the cleavage of poly (ADP-ribose) polymerase (PARP), a common response during apoptosis. SK-N-SH cells were cultured in the presence or absence of 20 μM syringolin A for 0, 24 and 48 hours, and cell lysates were then generated as described in Example 4 and probed for the presence of PARP by Western blotting using rabbit polyclonal anti-PARP (#9542) (diluted 1:1000) and the HRP-linked anti-rabbit secondary antibody described in Example 4. The results were representative of four independent experiments. […] The treatment of cells for 48 hours further increased the levels of cleaved PARP, whereas noncleaved PARP disappeared. In a similar manner, syringolin A induced PARP cleavage in SKOV3 cells, but noncleaved PARP was still detected 48 hours after treatment (FIG. 5B).
The role of glidobactin A (GlbA) in apoptosis and its correlation with autophagy has not previously been examined. Therefore, in a series of experiments, cell lysates of SK-N-SH cells were treated with GlbA in the presence and absence of the autophagy inhibitor 3-methyladenine (3-MA) and probed for poly ADP-ribose polymerase (PARP). The cleavage of PARP produces a smaller 89 kDa fragment which is indicative of late apoptosis.

SKOV3 cells = experiment: Cytox-Glo cytotoxicity assay; type: cell-based, human; conditions: SKOV3, 1.0 μM GlbA or 25 μM SylA, 48 hours
Experimental: Determination of potential cytotoxic effects by GlbA and/or […] was carried out by using the Cytox-Glo cytotoxicity assay, which measures “dead cell proteases” from cells that have lost membrane integrity. Briefly, cells were treated with a single concentration of compound for 48 hours in a final volume of 100 μl, after which 50 μl of AAF-Glo luminogenic peptide substrate (alanyl-alanyl-phenylalanyl-aminoluciferin) was added to each well and incubated for 15 min at room temperature. The luminescence was measured by a Dynex MLX luminometer to give a reading of cells with damaged membranes. Next, 50 μl of digitonin was added to each well and the samples incubated for 15 minutes at room temperature. Luminescence was measured a second time to determine total cell number. Controls included cells with vehicle only, media, and media with compound.
SK-N-SH cells were treated with 0.25 μM GlbA or 25 μM SylA and SKOV3 cells were treated with 1.0 μM GlbA or 25 μM SylA. As illustrated in FIGS. 16A and 16B, control cells (treated with DMSO and H2O representing GlbA and SylA controls, respectively) were viable and no cytotoxicity was detected.

TH-MYCN transgenic mouse = experiment: tumor reduction in TH-MYCN mouse model of human neuroblastoma; type: in vivo; conditions: homozygous mice, i.p. and/or i.v., every 72 hours for 3 to 6 weeks, vs untreated mice
Excerpt: The TH-MYCN transgenic mouse is a well-established neuroblastoma mouse model (Hansfored, et al. 2004. PNAS 101(34):12664-12669; Weiss, et al. 2007. Cancer Res 67(19):9435-9442; Weiss, et al. 2000. Cancer Res 6″2483-2487, each of which is incorporated herein by reference in its entirety). The tumors are caused by targeted expression of MYCN to the neural crest under the control of the rat tyrosine hydroxylase promoter, where the mice develop a tumor phenotype that closely resembles the human disease. The tumors in this strain of mouse generally develop in the abdominal and thoracic areas. TH-MYCN breeder pairs are supplied as hemizygote (129×1/SvJ-Tg(TH-MYCN)41Waw) and a wild type mate (129×1/SvJ).
Test compounds are administered to homozygous mice at a dose that is developed based upon the results of the initial dose and toxicity study (Example 15). Two to four doses per compound are administered by i.p. and/or i.v. methods into homozygous mice when palpable tumors begin to form. Vehicle is delivered […] as a control. Further doses are administered thereafter every 72 hours for 3 to 6 weeks. Between eight to twelve mice are tested in the study for administration of each compound. […] At the conclusion of the study, the mice are sacrificed and tumor size and number of tumors are assessed.

| Compound | PARP cleavage ([1]; Example 15, single agent) | GlbA-induced PARP cleavage in presence of 3-MA ([1]; GlbA with 3-MA) | cytotoxicity (SKOV3 cells) | size and number of tumors (TH-MYCN transgenic mouse) | PARP cleavage ([1]; 20 μM, 24 and 48 hours) |
| --- | --- | --- | --- | --- | --- |
| CCCCCCC/C=C/C=C/C(=O)N[C@H](C(=O)N[C@H]1C[C@@H](O)CCNC(=O)/C=C/[C@H](C)NC1=O)[C@@H](C)O [glidobactin A] | PARP cleavage was observed | slightly reduced this effect | relatively low levels of cytotoxicity | effective in reducing both the size and number of tumors |  |
| CC(C)[C@H](NC(=O)N[C@H](C(=O)N[C@H]1/C=C/CCNC(=O)/C=C/[C@H](C(C)C)NC1=O)C(C)C)C(=O)O [syringolin A] |  |  | relatively low levels of cytotoxicity | effective in reducing both the size and number of tumors | induces apoptosis-associated PARP cleavage |
